Results as given in BigSolDB 2.1.

Question: Which results are given for `CC1(C)NC(=O)NC1=O`?
Answer: solubility (mole fraction) (in acetonitrile, 283.15 K): 0.0123; solubility (mole fraction) (in acetonitrile, 288.15 K): 0.0144; solubility (mole fraction) (in acetonitrile, 293.15 K): 0.017; solubility (mole fraction) (in acetonitrile, 298.15 K): 0.0196; solubility (mole fraction) (in acetonitrile, 303.15 K): 0.0227; solubility (mole fraction) (in acetonitrile, 308.15 K): 0.026; solubility (mole fraction) (in acetonitrile, 313.15 K): 0.0294; solubility (mole fraction) (in acetonitrile, 318.15 K): 0.0345; solubility (mole fraction) (in acetonitrile, 323.15 K): 0.039; solubility (mole fraction) (in ethanol, 283.15 K): 0.0412; solubility (mole fraction) (in ethanol, 288.15 K): 0.0465; solubility (mole fraction) (in ethanol, 293.15 K): 0.0526; solubility (mole fraction) (in ethanol, 298.15 K): 0.0592; solubility (mole fraction) (in ethanol, 303.15 K): 0.0672; solubility (mole fraction) (in ethanol, 308.15 K): 0.0757; solubility (mole fraction) (in ethanol, 313.15 K): 0.0846; solubility (mole fraction) (in ethanol, 318.15 K): 0.0961; solubility (mole fraction) (in ethanol, 323.15 K): 0.108; solubility (mole fraction) (in ethyl acetate, 283.15 K): 0.0118; solubility (mole fraction) (in ethyl acetate, 288.15 K): 0.0133; solubility (mole fraction) (in ethyl acetate, 293.15 K): 0.0154; solubility (mole fraction) (in ethyl acetate, 298.15 K): 0.0175; solubility (mole fraction) (in ethyl acetate, 303.15 K): 0.0191; solubility (mole fraction) (in ethyl acetate, 308.15 K): 0.0213; solubility (mole fraction) (in ethyl acetate, 313.15 K): 0.0236; solubility (mole fraction) (in ethyl acetate, 318.15 K): 0.026; solubility (mole fraction) (in ethyl acetate, 323.15 K): 0.0289; solubility (mole fraction) (in isobutanol, 283.15 K): 0.0242; solubility (mole fraction) (in isobutanol, 288.15 K): 0.0284; solubility (mole fraction) (in isobutanol, 293.15 K): 0.0328; solubility (mole fraction) (in isobutanol, 298.15 K): 0.038; solubility (mole fraction) (in isobutanol, 303.15 K): 0.0439; solubility (mole fraction) (in isobutanol, 308.15 K): 0.0509; solubility (mole fraction) (in isobutanol, 313.15 K): 0.0577; solubility (mole fraction) (in isobutanol, 318.15 K): 0.0672; solubility (mole fraction) (in isobutanol, 323.15 K): 0.0757; solubility (mole fraction) (in isopropanol, 283.15 K): 0.0366; solubility (mole fraction) (in isopropanol, 288.15 K): 0.042; solubility (mole fraction) (in isopropanol, 293.15 K): 0.0481; solubility (mole fraction) (in isopropanol, 298.15 K): 0.0554; solubility (mole fraction) (in isopropanol, 303.15 K): 0.063; solubility (mole fraction) (in isopropanol, 308.15 K): 0.0714; solubility (mole fraction) (in isopropanol, 313.15 K): 0.0803; solubility (mole fraction) (in isopropanol, 318.15 K): 0.0914; solubility (mole fraction) (in isopropanol, 323.15 K): 0.102; solubility (mole fraction) (in methanol, 283.15 K): 0.0647; solubility (mole fraction) (in methanol, 288.15 K): 0.0719; solubility (mole fraction) (in methanol, 293.15 K): 0.0806; solubility (mole fraction) (in methanol, 298.15 K): 0.0896; solubility (mole fraction) (in methanol, 303.15 K): 0.0993; solubility (mole fraction) (in methanol, 308.15 K): 0.111; solubility (mole fraction) (in methanol, 313.15 K): 0.122; solubility (mole fraction) (in methanol, 318.15 K): 0.135; solubility (mole fraction) (in methanol, 323.15 K): 0.15; solubility (mole fraction) (in n-butanol, 283.15 K): 0.026; solubility (mole fraction) (in n-butanol, 288.15 K): 0.0296; solubility (mole fraction) (in n-butanol, 293.15 K): 0.0338; solubility (mole fraction) (in n-butanol, 298.15 K): 0.0389; solubility (mole fraction) (in n-butanol, 303.15 K): 0.0447; solubility (mole fraction) (in n-butanol, 308.15 K): 0.0509; solubility (mole fraction) (in n-butanol, 313.15 K): 0.0574; solubility (mole fraction) (in n-butanol, 318.15 K): 0.0661; solubility (mole fraction) (in n-butanol, 323.15 K): 0.0737; solubility (mole fraction) (in n-pentanol, 283.15 K): 0.0236; solubility (mole fraction) (in n-pentanol, 288.15 K): 0.0267; solubility (mole fraction) (in n-pentanol, 293.15 K): 0.0305; solubility (mole fraction) (in n-pentanol, 298.15 K): 0.0348; solubility (mole fraction) (in n-pentanol, 303.15 K): 0.0398; solubility (mole fraction) (in n-pentanol, 308.15 K): 0.0453; solubility (mole fraction) (in n-pentanol, 313.15 K): 0.0514; solubility (mole fraction) (in n-pentanol, 318.15 K): 0.0583; solubility (mole fraction) (in n-pentanol, 323.15 K): 0.0641; solubility (mole fraction) (in n-propanol, 283.15 K): 0.0326; solubility (mole fraction) (in n-propanol, 288.15 K): 0.0373; solubility (mole fraction) (in n-propanol, 293.15 K): 0.0424; solubility (mole fraction) (in n-propanol, 298.15 K): 0.0476; solubility (mole fraction) (in n-propanol, 303.15 K): 0.0543; solubility (mole fraction) (in n-propanol, 308.15 K): 0.0616; solubility (mole fraction) (in n-propanol, 313.15 K): 0.0687; solubility (mole fraction) (in n-propanol, 318.15 K): 0.0788; solubility (mole fraction) (in n-propanol, 323.15 K): 0.0881; solubility (mole fraction) (in n-propyl acetate, 283.15 K): 0.00923; solubility (mole fraction) (in n-propyl acetate, 288.15 K): 0.0105; solubility (mole fraction) (in n-propyl acetate, 293.15 K): 0.0118; solubility (mole fraction) (in n-propyl acetate, 298.15 K): 0.0138; solubility (mole fraction) (in n-propyl acetate, 303.15 K): 0.0155; solubility (mole fraction) (in n-propyl acetate, 308.15 K): 0.0172; solubility (mole fraction) (in n-propyl acetate, 313.15 K): 0.0193; solubility (mole fraction) (in n-propyl acetate, 318.15 K): 0.0215; solubility (mole fraction) (in n-propyl acetate, 323.15 K): 0.0234; solubility (mole fraction) (in sec-butanol, 283.15 K): 0.0384; solubility (mole fraction) (in sec-butanol, 288.15 K): 0.0449; solubility (mole fraction) (in sec-butanol, 293.15 K): 0.0505; solubility (mole fraction) (in sec-butanol, 298.15 K): 0.058; solubility (mole fraction) (in sec-butanol, 303.15 K): 0.0655; solubility (mole fraction) (in sec-butanol, 308.15 K): 0.074; solubility (mole fraction) (in sec-butanol, 313.15 K): 0.083; solubility (mole fraction) (in sec-butanol, 318.15 K): 0.093; solubility (mole fraction) (in sec-butanol, 323.15 K): 0.105; solubility (mole fraction) (in water, 283.15 K): 0.0163; solubility (mole fraction) (in water, 288.15 K): 0.0186; solubility (mole fraction) (in water, 293.15 K): 0.0213; solubility (mole fraction) (in water, 298.15 K): 0.0242; solubility (mole fraction) (in water, 303.15 K): 0.0279; solubility (mole fraction) (in water, 308.15 K): 0.0326; solubility (mole fraction) (in water, 313.15 K): 0.038; solubility (mole fraction) (in water, 318.15 K): 0.0458; solubility (mole fraction) (in water, 323.15 K): 0.0532
